Where two headings read alike, the source gives them in different places.
What was measured:
[1] = system: Purified phosphotyrosyl protein phosphatase from human placental membranes; type: biochemical
Experimental: (§1) Human placental alkaline phosphatase and prostatic phosphatase were obtained commercially. Alkaline phosphatase was assayed in a reaction mixture containing 50 mM glycine NaOH, pH 10, MgCl2 and 1 mM PNPP; prostatic acid phosphatase was assayed in a reaction mixture containing 100 mM acetate, pH 5, 0.1 mM PNPP, and purified phosphotyrosyl protein phosphatase was assayed in 100 mM acetate, pH 5, 0.8 mM PNPP, 0.2 mg/ml BSA and 5 mM DTT. All assays were performed at 30°.
(§2) p-Nitrophenylphosphatase activity was determined in a final volume of […] containing 100 mM acetate, pH 5, 5 mM DTT, 2.5 mg/ml BSA and 1 mM PNPP. The reaction was carried out at 30° C. and terminated with 0.5 ml of 0.2N NaOH. Alkaline PNPP phosphatase activity was similarly determined except that 50 mM glycine NaOH, pH 10, was used as buffer and 10 mM MgCl2 was included in the reaction mixture. Absorption at 410 nm wavelength was recorded on a Gilson spectrophotometer. Units of phosphatase activity were calculated with a millimolar extinction coefficient of 17.5 for p-nitrophenol at 410 nm and pH 11.

[2] = system: Purified phosphotyrosyl protein phosphatase from human placental membranes; type: biochemical; remark: listed apart in the source
Experimental: Phosphotyrosine phosphatase activity was measured by the release of ^32 Pi from ^32 P-Tyr-angiotensin II in a […] reaction mixture containing 0.1M acetate, pH 5, 5 mM DTT, 2.5 mg/ml BSA and 0.05 mM ^32 Pi of ^32 P-Tyr-angiotensin II. After incubation at 30° for 30 minutes, the reaction was terminated by the addition of […] of 10% TCA. 0.2 ml of 1.25 mM KH2 PO4 in 1N H2 SO4 was added as carrier. 0.1 ml of 5% ammonium molybdate was then added. After extraction with 0.5 ml of 1:1 isobutanol:benzene, 0.25 ml of the upper phase was taken and mixed with 10 ml Aquasol II to be counted in a packard scintillation counter.

[3] = target: T1, Human placental alkaline phosphatase (obtained commercially) (Homo sapiens, UniProt P05187); test: biochemical; conditions: for inhibition at 10000 µM: compound at 10 mM, read-out: % change of activity; for inhibition at 10000 µM / % change of activity: 1 mM PNPP, glycine NaOH pH 10, MgCl2, 30°; for % change of activity: compound at 10 μM
T1 construct: purchased Worthington Biochem; host or cells: human placenta
T1 sequence (P05187 23-506 limits assumed): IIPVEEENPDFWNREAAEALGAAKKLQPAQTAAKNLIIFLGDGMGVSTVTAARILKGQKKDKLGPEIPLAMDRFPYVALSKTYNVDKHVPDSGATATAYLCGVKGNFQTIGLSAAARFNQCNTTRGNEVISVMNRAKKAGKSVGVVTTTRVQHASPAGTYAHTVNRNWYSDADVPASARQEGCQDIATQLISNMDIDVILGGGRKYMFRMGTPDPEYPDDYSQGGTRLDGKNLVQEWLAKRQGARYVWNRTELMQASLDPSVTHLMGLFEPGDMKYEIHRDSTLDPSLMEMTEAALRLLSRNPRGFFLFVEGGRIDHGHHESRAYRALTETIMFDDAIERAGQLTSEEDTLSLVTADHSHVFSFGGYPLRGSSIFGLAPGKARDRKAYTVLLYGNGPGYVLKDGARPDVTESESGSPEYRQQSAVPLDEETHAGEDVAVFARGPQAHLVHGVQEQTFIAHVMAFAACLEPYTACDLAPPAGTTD
Experimental: as §1, §2

[4] = target: T2, Human prostatic acid phosphatase (obtained commercially) (Homo sapiens, UniProt P15309); test: biochemical; conditions: for inhibition at 10000 µM: compound at 10 mM, read-out: % change of activity; for inhibition at 10000 µM / % change of activity: 0.1 mM PNPP, 100 mM acetate pH 5, 30°; for % change of activity: compound at 10 μM
T2 construct: purchased Sigma; host or cells: human semen
T2 sequence (P15309 33-386): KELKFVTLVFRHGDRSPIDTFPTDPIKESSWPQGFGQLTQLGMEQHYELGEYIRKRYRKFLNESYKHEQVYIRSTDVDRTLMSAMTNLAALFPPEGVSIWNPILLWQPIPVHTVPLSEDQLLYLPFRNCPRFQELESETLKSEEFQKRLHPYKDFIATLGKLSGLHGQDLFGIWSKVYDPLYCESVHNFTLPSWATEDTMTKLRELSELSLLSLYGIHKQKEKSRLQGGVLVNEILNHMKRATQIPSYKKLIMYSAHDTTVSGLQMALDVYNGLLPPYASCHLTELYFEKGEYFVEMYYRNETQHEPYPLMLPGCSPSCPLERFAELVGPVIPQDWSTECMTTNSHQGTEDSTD
Experimental: as §1, §2

[5] = compound at 10 mM, 0.8 mM PNPP, 100 mM acetate pH 5, 0.2 mg/ml BSA, 5 mM DTT, 30°
[6] = compound at 10 μM, 0.8 mM PNPP, 100 mM acetate pH 5, 0.2 mg/ml BSA, 5 mM DTT, 30°
[7] = pH 10, read-out: % change of activity
[8] = pH 5, read-out: % change of activity

## N[C@@H](COP(=O)(O)O)C(=O)O [p-serine, phosphoserine]
[1]; [5]
  % change of activity: +73.4%
[1]; text summary of Table I, phosphoserine 10 mM per table
  stimulation of PNPP phosphatase activity: 73%
[2]; compound at 10 mM
  stimulation of 32P-Tyr-angiotensin II phosphatase activity: 4.3%
[3]
  inhibition at 10000 µM: 92.6%
[4]
  inhibition at 10000 µM: 19%
[4]; concentration not given
  effect on PNPP phosphatase activity: slightly inhibited

## N[C@@H](Cc1ccc(OP(=O)(O)O)cc1)C(=O)O [p-tyrosine, phosphotyrosine]
[1]; [5]
  % change of activity: -21.6%
[1]; concentration not given
  effect on PNPP phosphatase activity: slightly inhibited
[2]; compound at 10 mM
  inhibition of 32P-Tyr-angiotensin II phosphatase activity: 11.5%
[3]
  inhibition at 10000 µM: 85.6%
[4]
  inhibition at 10000 µM: 24.4%

## [O]=[V]([O-])([O-])[O-] [vanadate]
[1]; [6]
  % change of activity: -38.2%
[1]; compound at 100 μM
  effect on PNPP phosphatase activity: nearly completely inhibited
[2]; compound at 10 μM
  inhibition of 32P-Tyr-angiotensin II phosphatase activity: 46.4%
[3]
  % change of activity: -18.3%
[4]
  % change of activity: -87.8%

## O=C(O)[C@H](O)[C@@H](O)C(=O)O [L-tartrate]
[1]
  effect on PNPP phosphatase activity: nearly completely inhibited
[1]; purified phosphotyrosyl protein phosphatase, pH 5, 5000 µM
  % change of activity: -98.1%
[2]
  inhibition of 32P-Tyr-angiotensin II phosphatase activity: 27.6%
[3]; [7]
  inhibition at 5000 µM: 10.4%
[4]; [8]
  inhibition at 5000 µM: 97.6%

## molybdate
[1]; compound at 10 μM
  effect on PNPP phosphatase activity: nearly completely inhibited
[1]; [6]
  % change of activity: -96.4%
[2]; compound at 10 μM
  inhibition of 32P-Tyr-angiotensin II phosphatase activity: 20.8%
[3]
  % change of activity: 0%
[4]
  % change of activity: -95.0%

## O=C(O)CN(CCN(CC(=O)O)CC(=O)O)CC(=O)O [EDTA, Ethylene diamine tetraacetate]
[1]
  stimulation of PNPP phosphatase activity: 79%
[1]; purified phosphotyrosyl protein phosphatase, pH 5, 20000 µM
  % change of activity: +78.9%
[2]
  stimulation of 32P-Tyr-angiotensin II phosphatase activity: 29.8%
[3]; [7]
  inhibition at 20000 µM: 94%
[4]
  effect on PNPP phosphatase activity: not affected
[4]; [8]
  inhibition at 20000 µM: 2.2%
